Source: publication PMC3073003, “Peptide-Modified Surfaces for Enzyme Immobilization” (PLoS ONE, 2011)
Ends that are not written are not given here.

Tests used:
[1] = target: T1, β-galactosidase (β-Gal) (Escherichia coli, UniProt P00722); format: binding, E. coli; parameters: biotin (chemical label by Sulfo-NHS-biotin on amines, about two per enzyme); purchased Sigma (St. Louis, MO); conditions: for Binding affinity (Norm.): β-Gal bound to surface-modified microwells, 25 nM biotin-labeled β-Gal, ELISA, normalized to amine surface 8
T1 sequence (P00722 2-1024): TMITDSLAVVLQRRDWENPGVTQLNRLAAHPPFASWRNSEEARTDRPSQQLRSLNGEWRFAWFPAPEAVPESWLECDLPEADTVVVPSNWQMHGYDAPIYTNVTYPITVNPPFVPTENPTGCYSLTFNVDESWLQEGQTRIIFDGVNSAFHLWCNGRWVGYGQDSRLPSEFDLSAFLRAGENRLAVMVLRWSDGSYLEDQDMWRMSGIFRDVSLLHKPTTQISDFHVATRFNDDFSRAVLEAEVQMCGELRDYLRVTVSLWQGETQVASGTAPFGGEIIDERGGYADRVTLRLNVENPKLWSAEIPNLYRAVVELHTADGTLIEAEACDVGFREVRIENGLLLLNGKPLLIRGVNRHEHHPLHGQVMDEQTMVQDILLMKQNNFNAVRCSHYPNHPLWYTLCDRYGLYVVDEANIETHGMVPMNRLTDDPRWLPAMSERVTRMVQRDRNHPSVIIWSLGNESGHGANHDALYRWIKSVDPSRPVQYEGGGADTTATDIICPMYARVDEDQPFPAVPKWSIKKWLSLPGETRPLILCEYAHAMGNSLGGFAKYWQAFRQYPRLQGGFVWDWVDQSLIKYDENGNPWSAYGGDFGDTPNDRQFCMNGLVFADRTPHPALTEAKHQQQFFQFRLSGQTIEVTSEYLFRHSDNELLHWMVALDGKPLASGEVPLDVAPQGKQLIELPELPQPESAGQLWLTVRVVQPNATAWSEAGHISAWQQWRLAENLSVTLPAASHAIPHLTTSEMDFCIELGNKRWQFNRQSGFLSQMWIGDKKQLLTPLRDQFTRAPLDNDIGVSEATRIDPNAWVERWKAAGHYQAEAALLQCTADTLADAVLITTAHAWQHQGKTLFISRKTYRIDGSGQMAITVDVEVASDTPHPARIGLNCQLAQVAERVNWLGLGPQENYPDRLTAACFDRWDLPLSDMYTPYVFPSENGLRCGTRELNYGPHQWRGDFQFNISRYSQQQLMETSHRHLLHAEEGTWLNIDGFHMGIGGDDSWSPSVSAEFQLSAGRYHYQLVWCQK
Experimental: (§1) Peptides were conjugated to aminated microwell surfaces through the specific reaction between C-terminal cysteines and the maleimide-activated surfaces, as shown in Figure 1a. […] The microwell plate was then briefly washed with pure water three times. […] The reaction was incubated for 4 hours at room temperature, in the dark. After the conjugation reaction was complete, the microwells were washed for 5 minutes in 1× TBST, three times, followed by three washes in water. To immobilize the enzyme on peptide-modified surfaces, 30 µL of 25 nM biotin-labeled β-Gal was incubated in the peptide-modified microwells for two hours in 10 mM phosphate buffer, pH 7.3 with 100 µM MgCl2 and 0.05% Tween 20 (v/v%), at room temperature. The microwells were washed for 5 minutes in 1× TBST, three times, followed by three washes in phosphate buffer. […] Figures S8–10 in File S1 show the detailed optimization procedures for peptide-modified surfaces.
(§2) First, 30 µL of 2 mg/mL BS^3 prepared in 1× PBS, pH 7.4 was incubated with the aminated microwells for half an hour. Then, the microwells were briefly washed with nanopure water, three times, to remove unreacted BS^3 molecules. Finally, 30 µL of biotin-labeled β-Gal was incubated with the microwells for one hour, which were then washed three times in 1× TBST, followed by three washes in phosphate buffer.
(§3) The activity assay of surface-bound β-Gal was performed on a SpectraMax M5 96-well plate reader (Molecular Device, Sunnyvale, CA) by adding 100 µL of 100 µM RBG into the wells. The relative amount of surface-bound β-Gal was measured using an enzyme linked immunosorbant assay (ELISA). β-Gal was first labeled with biotin. Alkaline phosphatase-conjugated strepavidin (0.4 mg/ml) was diluted at 1∶1000 in 1× PBS, 0.05% (v/v) Tween 20. Next, 30 µL of streptavidin solution was added to the β-Gal-bound wells and incubated for one hour at room temperature. The streptavidin solution was then removed and the plate was washed three times with TBST buffer and three times with TBS buffer. Then, 200 µL of 1 mM PNPP was added to each well. The alkaline phosphatase activity was subsequently measured by reading the absorbance increase at 405 nm on the M5 plate reader. The β-Gal binding level was determined from the activity of alkaline phosphatase-conjugated strepavidin bound to the wells.

[2] = target: T1, β-galactosidase (β-Gal); format: biochemical, E. coli; parameters: biotin (chemical label by Sulfo-NHS-biotin on amines, about two per enzyme); purchased Sigma (St. Louis, MO); conditions: for Specific activity (Norm.): total bound enzyme activity divided by total binding intensity; for Specific activity (Norm.) / Activity (Norm.): normalized to amine surface 8; for Activity (Norm.): β-Gal immobilized on surface-modified microwells, 25°C
Experimental: Figure 1 Enzyme immobilization on peptide-modified surfaces. (a) The overall process for conjugating peptides to aminated microwells through specific reactions between C-terminal cysteines and maleimide-activated surfaces. (b) Activity of β-Gal immobilized on different surfaces. 25 nM β-Gal is first incubated with modified microwells for one hour and then enzyme activity is measured at 25°C as a function of time using 100 µM Resorufin β-D-galactopyranoside as the substrate. YHNN, QYHH, RVFK, PASM and EFSN represent β-Gal bound to various peptide-modified surfaces (see text). […] AMINE represents enzyme bound noncovalently to an aminated surface. […] Each subunit is labeled with a unique color showing the symmetry of the β-Gal structure. […] The substrate-binding sites of β-Gal are circled with right color (Glu461, Met502, Tyr503 and Glu537) according to reference 16.
as §1, §2, §3

[3] = target: T1, β-galactosidase (β-Gal); format: binding, E. coli; parameters: biotin (chemical label by Sulfo-NHS-biotin on amines, about two per enzyme); purchased Sigma (St. Louis, MO); conditions: for Enzyme binding (Norm.): microarray of 10,000 peptides, selection described in reference [13]
Source text: (§4) Peptide microarrays containing 132, 20-mer single-point variants of the YHNN peptide were generated using our established, in-house printing method. […] Synthesized peptides (70% purity) were purchased from Sigma. The last three carboxy-terminal positions of each peptide constituted a glycine-serine-cysteine (GSC) linker, used for conjugating the peptides to amino-silane surfaces through the C-terminal cysteine via a maleimide linker, Sulfo-SMCC (Pierce, Rockford, IL). A Telechem Nanoprint60 was used to spot approximately 500 pL of 1 mg/mL peptide prepared in 1× PBS for each feature on glass slides with 48 Telechem series SMP2 style 946 titanium pins.
(§5) Enzyme assays on the microarrays were performed as described in the previous work. […] The array was incubated with a solution containing 10 nM Alexa™ 647- labeled β-Gal for two hours, allowing the enzyme to bind with peptides on the array surface. After washing off unbound enzymes, a fluorescent substrate analogue (FDG) was mixed with a 5% PVA solution and spin-coated onto the array surface for monitor the enzyme activity. The FDG molecules (substrate) in the PVA layer were converted to fluorescein (product), by the active enzymes bound to specific peptides on the array surface. The fluorescein molecules remained localized because of the PVA viscosity. Both the relative binding level of Alexa™ 647-labeled enzyme and the relative amount of fluorescein produced during the incubation period were determined by dual color scanning. Each array experiment was repeated at least three times under the same conditions for statistical analysis.

[4] = target: T1, β-galactosidase (β-Gal); format: biochemical, E. coli; parameters: biotin (chemical label by Sulfo-NHS-biotin on amines, about two per enzyme); purchased Sigma (St. Louis, MO); conditions: for Enzyme activity (Norm.) / Surface specific activity (Norm.): microarray of 10,000 peptides; for Enzyme activity (Norm.): selection described in reference [13]; for Surface specific activity (Norm.): total bound enzyme activity divided by total binding intensity
Source text: as §4, §5

[5] = target: T1, β-galactosidase (β-Gal); assay: biochemical; format: binding, E. coli; parameters: biotin (chemical label by Sulfo-NHS-biotin on amines, about two per enzyme); purchased Sigma (St. Louis, MO)
Experimental: as §3

[6] = target: T1, β-galactosidase (β-Gal); format: biochemical, E. coli; parameters: biotin (chemical label by Sulfo-NHS-biotin on amines, about two per enzyme); purchased Sigma (St. Louis, MO); conditions: read-out: apparent Km of β-Gal; peptide-modified iodoacetyl resin or free enzyme, ~150 pM enzyme, RBG 3-400 µM, 25 °C
Experimental: The determination of the enzyme kinetic constants (KM and kcat) of immobilized β-Gal was performed on peptide-modified iodoacetyl polyacrylamide resin (UltraLink, Pierce, 50–80 µm diameter). To modify the bead surface with peptide, peptide solutions were incubated with iodoacetyl resin for one hour in 50 mM Tris buffer, 5 mM EDTA, pH 8.5. The unreacted iodacetyl groups were then capped with 50 mM L-cysteine. The amount of peptide immobilized on a bead surface was determined by comparing the peptide concentration of the unbound fraction (the remaining free peptide concentration after binding to the surface) to the starting concentration through absorbance changes at 280 nm. β-Gal was captured on the peptide-modified beads using the same protocol which immobilized the enzyme in the microwells, above. The amount of bead-immobilized β-Gal was measured by comparing the protein concentration of the unbound fraction to the starting protein concentration, determined at 280 nm. KM and Vmax (and thus kcat, using the total enzyme concentration) of β-Gal immobilized on peptide-modified beads were determined by fitting the activity vs. substrate concentration curves in the GraphPad program using the fitting equation of “Y = Vmax*X/(Km+X)”.
Colored curves: Curve fit determining the Michaelis constants of β-Gal immobilized […]
The enzyme activities are measured as a function of the concentration of […]

[7] = target: T1, β-galactosidase (β-Gal)
Experimental: Figure 2 Point-variant screening of a lead peptide, YHNN. β-Gal was bound to a microarray containing 132 YHNN variants and its activity was measured. (a) The activity of bound β-Gal on microarrays as a function of the amount of enzyme bound to a particular variant feature at room temperature. […] All data is normalized to the binding and activity values for the lead peptide, YHNN. (b) Thermal-stability assay. β-Gal was bound to the microarray containing YHNN variants as in (a) at room temperature, followed by incubation in phosphate buffer at 55°C for one hour. Enzyme activity was then assayed at room temperature. […] (c) pH activity range assay. YHNN variant microarrays were bound to β-Gal as in (a) and incubated at room temperature in buffers with pHs ranging from 6 to 9 for one hour and then assayed for activity at the pH of incubation.
The library of single-point variants was also screened for enhanced thermal or pH stability of immobilized β-Gal. For thermal stability screening, enzyme was bound to microarrays containing the 132 single-point variants, at room temperature, and then the arrays were incubated at 55°C for one hour and assayed for activity at room temperature.

[8] = peptide conjugated to aminated microwell
[9] = peptide-modified aminated microwell
[10] = microarray of 132 single-point variants, room temperature

PASMFSYFKKQGYYYKLGSC
Binding affinity (Norm.) [1]: 0.5±0.1
Specific activity (Norm.) [2]: 0.5±0.1
Activity (Norm.) ([2]; 100 µM RBG): 0.3±0.06
Enzyme binding (Norm.) [3]: 63.9
Enzyme activity (Norm.) [4]: 2.3
Surface specific activity (Norm.) [4]: 0.16

QYHHFMNLKRQGRAQAYGSC [QYHH]
Kd [5]: ~4 nM
Km [6]: 250 µM

RVFKRYKRWLHVSRYYFGSC
Binding affinity (Norm.) [1]: 0.9±0.05
Specific activity (Norm.) [2]: 0.1±0.01
Activity (Norm.) ([2]; 100 µM RBG): 0.1±0.01
Enzyme binding (Norm.) [3]: 50.3
Enzyme activity (Norm.) [4]: 0.9
Surface specific activity (Norm.) [4]: 0.08

EFSNPTAQVFPDFWMSDGSC
Binding affinity (Norm.) [1]: 0.1±0.01
Specific activity (Norm.) [2]: 0.4±0.1
Activity (Norm.) ([2]; 100 µM RBG): 0.05±0.01
Enzyme binding (Norm.) [3]: 0.4
Enzyme activity (Norm.) [4]: 0.7

YHNNPGFRVMQANKLHHGSC [Peptide Q12A]
specific activity increase of bound β-Gal compared to YHNN lead peptide at pH 6 ([7]; microarray incubated one hour at pH 6 and assayed at that pH): 4.1 fold
specific activity increase of bound β-Gal compared to YHNN lead peptide at pH 9 ([7]; microarray incubated one hour at pH 9 and assayed at that pH): 2.8 fold

YHNNPGFRVMQQNKLHHGSC [YHNN]
Kd [5]: ~5 nM
Km [6]: ~240 µM

YHNNPGFRYMQQNKLHHGSC [Peptide V9Y]
binding of immobilized β-Gal relative to YHNN [1, 8]: ~2 fold
specific activity of immobilized β-Gal relative to YHNN [2, 8]: ~2 fold
total bound enzymatic activity relative to the NHS surface [2, 9]: ~12 fold
total bound enzymatic activity relative to the amine surface [2, 9]: more than 5 fold
total activity of the bound enzyme relative to YHNN ([2]; peptide-modified aminated microwell, 100 µM RBG): ~5 fold
total bound enzyme activity compared with YHNN ([2]; single-point variants on aminated microwell surfaces): improvement
binding of β-Gal relative to YHNN lead peptide [3, 10]: 1.5 fold
specific activity of bound β-Gal relative to YHNN lead peptide [4, 10]: ~3 fold
